Source: ChEMBL document CHEMBL4406807, “Discovery of 3,4,6-Trisubstituted Piperidine Derivatives as Orally Active, Low hERG Blocking Akt Inhibitors via Conformational Restriction and Structure-Based Design” (J Med Chem, 2019)

Assays:
OVCAR-8 = assay: Antiproliferative activity against human OVCAR8 cells; format: functional, cell-based
hERG (KCNH2) = hERG (KCNH2) (Homo sapiens, UniProt Q12809); assay: Inhibition of ERG in human HEK293 cells at 3 uM at -80 mV holding potential by whole-cell patch clamp assay relative to control; format: cell-based; conditions: HEK293 cells expressing ERG
[1] = Microsomal stability in mouse liver microsomes assessed as compound remaining at 100 ug/ml in presence of NADPH measured at 1.5 hrs by LC/MS analysis; format: ADME, Microsome; conditions: read-out: Stability
[2] = Microsomal stability in rat liver microsomes assessed as compound remaining at 100 ug/ml in presence of NADPH measured at 1.5 hrs by LC/MS analysis; format: ADME, Microsome; conditions: read-out: Stability
[3] = Microsomal stability in dog liver microsomes assessed as compound remaining at 100 ug/ml in presence of NADPH measured at 1.5 hrs by LC/MS analysis; format: ADME, Canis lupus familiaris, Microsome; conditions: read-out: Stability
[4] = Microsomal stability in monkey liver microsomes assessed as compound remaining at 100 ug/ml in presence of NADPH measured at 1.5 hrs by LC/MS analysis; format: ADME, Macaca mulatta, Microsome; conditions: rhesus monkey, read-out: Stability
[5] = Cmax in ICR mouse at 20 mg/kg, po measured up to 48 hrs by LC-MS/MS analysis; format: ADME, organism-based; design: dose 20 mg/kg, route oral; conditions: in vivo
[6] = Half-life in ICR mouse at 20 mg/kg, po measured up to 48 hrs by LC-MS/MS analysis; format: ADME, organism-based; conditions: in vivo
[7] = AUC (0 to infinity) in ICR mouse at 20 mg/kg, po measured up to 48 hrs by LC-MS/MS analysis; format: ADME, organism-based; design: dose 20 mg/kg, time infinity, route oral; conditions: in vivo
[8] = Oral bioavailability in ICR mouse at 20 mg/kg measured up to 48 hrs by LC-MS/MS analysis; format: ADME, organism-based; conditions: in vivo
[9] = target: Serine/threonine-protein kinase AKT (Homo sapiens, UniProt P31751+Q9Y243+P31749); assay: Inhibition of Akt in human LNCaP cells assessed as reduction in PRAS40 phosphorylation at T246 residue after 1 hr by ELISA; format: cell-based
[10] = Toxicity in ICR mouse assessed as reduction in red blood cells at 40 mg/kg, ig administered once daily for 7 days; format: organism-based; conditions: in vivo, po, 168 h
[11] = Toxicity in ICR mouse assessed as reduction in hemoglobin level at 40 mg/kg, ig administered once daily for 7 days; format: organism-based; conditions: in vivo, po, 168 h
[12] = Toxicity in ICR mouse assessed as reduction in specific volume of RBC at 40 mg/kg, ig administered once daily for 7 days; format: organism-based; conditions: in vivo, po, 168 h
[13] = Toxicity in ICR mouse assessed as reduction in creatinine level at 40 mg/kg, ig administered once daily for 7 days; format: organism-based; conditions: in vivo, po, 168 h
MM1.S = assay: Antitumor activity against human MM1S cells xenografted in BALB/c nude mouse assessed as tumor growth inhibition at 10 mg/kg, po administered once daily for 22 days relative to control; format: functional; conditions: 528 h, read-out: TGI
[14] = Toxicity in BALB/c nude mouse xenografted with human MM1S cells assessed as reduction in body weight at 10 mg/kg, po administered once daily for 22 days relative to control; format: organism-based; design: scale not given: the % may be the effect or the level left; conditions: in vivo, 528 h
[15] = Toxicity in po dosed BALB/c nude mouse xenografted with human MM1S cells assessed as maximum tolerated dose administered once daily for 22 days; format: organism-based; conditions: in vivo
[16] = Toxicity in BALB/c nude mouse xenografted with human MM1S cells assessed as reduction in mouse survival at 10 mg/kg, po administered once daily for 22 days; format: organism-based; conditions: in vivo, 528 h
[17] = Toxicity in ICR mouse assessed as reduction in mouse survival at 20 to 40 mg/kg, ig administered once daily for 7 days; format: organism-based; conditions: in vivo, po, 168 h
[18] = Toxicity in ICR mouse assessed as induction of heavy gastrointestinal hemorrhage by autopsy analysis; conditions: in vivo
LNCaP = assay: Antiproliferative activity against human LNCAP cells; format: functional, cell-based
[19] = target: RAC-beta serine/threonine-protein kinase (Homo sapiens, UniProt P31751); assay: Inhibition of human Akt2 by mobile shift assay
[20] = target: RAC-gamma serine/threonine-protein kinase (Homo sapiens, UniProt Q9Y243); assay: Inhibition of Akt3 (unknown origin) by mobile shift assay
Protein kinase C (PKC) = assay: Inhibition of PKC (unknown origin); format: protein assay, Homo sapiens
[21] = target: Rho-associated protein kinase 1 (Homo sapiens, UniProt Q13464); assay: Inhibition of human ROCK1 by mobile shift assay
[22] = target: Ribosomal protein S6 kinase alpha-1 (Homo sapiens, UniProt Q15418); assay: Inhibition of RSK1 (unknown origin) by mobility shift assay
[23] = target: Ribosomal protein S6 kinase beta-1 (Homo sapiens, UniProt P23443); assay: Inhibition of human P70S6K by mobility shift assay
[24] = target: T1, Serine/threonine-protein kinase Sgk1 (Homo sapiens, UniProt O00141); assay: Inhibition of human SGK by mobility shift assay
T1 sequence (O00141 whole entry): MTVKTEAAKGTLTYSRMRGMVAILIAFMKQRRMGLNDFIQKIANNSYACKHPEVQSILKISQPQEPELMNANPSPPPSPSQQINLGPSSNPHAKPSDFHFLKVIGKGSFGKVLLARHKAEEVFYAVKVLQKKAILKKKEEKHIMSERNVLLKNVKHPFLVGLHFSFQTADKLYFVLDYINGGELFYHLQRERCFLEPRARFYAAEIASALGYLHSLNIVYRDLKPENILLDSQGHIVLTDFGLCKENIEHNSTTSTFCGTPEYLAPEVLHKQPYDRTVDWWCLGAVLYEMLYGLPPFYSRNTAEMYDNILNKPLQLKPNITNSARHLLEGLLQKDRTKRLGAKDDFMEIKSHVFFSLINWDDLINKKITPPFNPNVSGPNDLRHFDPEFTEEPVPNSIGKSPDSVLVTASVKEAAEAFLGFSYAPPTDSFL

[25] = target: RAC-alpha serine/threonine-protein kinase (Homo sapiens, UniProt P31749)
Description: Inhibition of human Akt1 expressed in Escherichia coli using STK Substrate 2-biotin as substrate incubated for 1 hr by HTRF assay

HCT-116 = assay: cells; conditions: Homo sapiens, HCT-116, 72 h
[26] = Inhibition of recombinant His-tagged human PKA expressed in Escherichia coli using Ser/Thr 01 as substrate after 1 hr by Z-lyte assay
[27] = Stability in human plasma at 100 ug/ml after 1 hr by LC/MS analysis; format: ADME, cell-free; conditions: read-out: Stability
[28] = Stability in mouse plasma at 100 ug/ml after 1 hr by LC/MS analysis; format: ADME, cell-free; conditions: read-out: Stability
[29] = Tmax in Sprague-Dawley rat at 25 mg/kg, ig measured up to 24 hrs by LC-MS/MS analysis; format: ADME, organism-based; conditions: in vivo, po
[30] = Half-life in Sprague-Dawley rat at 25 mg/kg, ig measured up to 24 hrs by LC-MS/MS analysis; format: ADME, organism-based; conditions: in vivo, po
[31] = Cmax in Sprague-Dawley rat at 25 mg/kg, ig measured up to 24 hrs by LC-MS/MS analysis; format: ADME, organism-based; design: dose 25 mg/kg, route […]; conditions: in vivo, po
[32] = Clearance in Sprague-Dawley rat at 25 mg/kg, ig measured up to 24 hrs by LC-MS/MS analysis; format: ADME, organism-based; conditions: in vivo, po
[33] = AUC (0 to t) in Sprague-Dawley rat at 25 mg/kg, ig measured up to 24 hrs by LC-MS/MS analysis; format: ADME, organism-based; design: time < 24 hr, dose 25 mg/kg, route […]; conditions: in vivo, po
[34] = AUC (0 to infinity) in Sprague-Dawley rat at 25 mg/kg, ig measured up to 24 hrs by LC-MS/MS analysis; format: ADME, organism-based; design: dose 25 mg/kg, route […], time infinity; conditions: in vivo, po
[35] = MRT (0 to t) in Sprague-Dawley rat at 25 mg/kg, ig measured up to 24 hrs by LC-MS/MS analysis; format: ADME, organism-based; conditions: in vivo, po
[36] = MRT (0 to infinity) in Sprague-Dawley rat at 25 mg/kg, ig measured up to 24 hrs by LC-MS/MS analysis; format: ADME, organism-based; conditions: in vivo, po
[37] = Volume of distribution in Sprague-Dawley rat at 25 mg/kg, ig measured up to 24 hrs by LC-MS/MS analysis; format: ADME, organism-based; conditions: in vivo, po
SK-OV-3 = assay: Antitumor activity against human SKOV3 cells xenografted in BALB/c nude mouse assessed as tumor growth inhibition at 60 mg/kg, po administered once daily for 21 days relative to control; format: functional; conditions: SK-OV-3, po, 504 h, read-out: TGI
[38] = Toxicity in BALB/c nude mouse xenografted with human SKOV3 cells assessed as reduction in mouse survival at 60 to 80 mg/kg, po administered once daily for 21 days; format: organism-based; conditions: in vivo, 504 h
[39] = Toxicity in BALB/c nude mouse xenografted with human SKOV3 cells assessed as effect on body weight at 60 to 80 mg/kg, po administered once daily for 21 days; format: organism-based; conditions: in vivo, 504 h

Chain of Ribosomal protein S6 kinase alpha-1 (Q15418 whole entry): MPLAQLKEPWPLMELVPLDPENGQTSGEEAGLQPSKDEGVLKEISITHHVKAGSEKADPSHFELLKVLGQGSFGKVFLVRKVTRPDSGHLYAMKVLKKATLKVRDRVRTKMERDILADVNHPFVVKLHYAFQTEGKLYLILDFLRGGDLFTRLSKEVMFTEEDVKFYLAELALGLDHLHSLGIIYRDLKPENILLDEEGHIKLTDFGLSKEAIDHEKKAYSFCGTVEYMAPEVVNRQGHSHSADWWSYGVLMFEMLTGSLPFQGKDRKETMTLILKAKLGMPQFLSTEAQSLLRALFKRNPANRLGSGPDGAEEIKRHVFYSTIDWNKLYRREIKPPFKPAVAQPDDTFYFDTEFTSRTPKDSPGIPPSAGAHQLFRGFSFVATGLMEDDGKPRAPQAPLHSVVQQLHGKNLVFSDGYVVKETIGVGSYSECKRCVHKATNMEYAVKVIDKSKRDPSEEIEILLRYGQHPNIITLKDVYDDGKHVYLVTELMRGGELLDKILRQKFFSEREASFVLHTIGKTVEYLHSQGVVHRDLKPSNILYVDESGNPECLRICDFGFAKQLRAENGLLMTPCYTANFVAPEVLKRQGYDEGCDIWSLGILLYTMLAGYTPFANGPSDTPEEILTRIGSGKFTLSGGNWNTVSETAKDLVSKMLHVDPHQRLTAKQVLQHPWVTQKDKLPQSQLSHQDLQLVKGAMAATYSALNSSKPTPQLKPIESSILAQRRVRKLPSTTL
Chain of hERG (KCNH2) (Q12809 whole entry): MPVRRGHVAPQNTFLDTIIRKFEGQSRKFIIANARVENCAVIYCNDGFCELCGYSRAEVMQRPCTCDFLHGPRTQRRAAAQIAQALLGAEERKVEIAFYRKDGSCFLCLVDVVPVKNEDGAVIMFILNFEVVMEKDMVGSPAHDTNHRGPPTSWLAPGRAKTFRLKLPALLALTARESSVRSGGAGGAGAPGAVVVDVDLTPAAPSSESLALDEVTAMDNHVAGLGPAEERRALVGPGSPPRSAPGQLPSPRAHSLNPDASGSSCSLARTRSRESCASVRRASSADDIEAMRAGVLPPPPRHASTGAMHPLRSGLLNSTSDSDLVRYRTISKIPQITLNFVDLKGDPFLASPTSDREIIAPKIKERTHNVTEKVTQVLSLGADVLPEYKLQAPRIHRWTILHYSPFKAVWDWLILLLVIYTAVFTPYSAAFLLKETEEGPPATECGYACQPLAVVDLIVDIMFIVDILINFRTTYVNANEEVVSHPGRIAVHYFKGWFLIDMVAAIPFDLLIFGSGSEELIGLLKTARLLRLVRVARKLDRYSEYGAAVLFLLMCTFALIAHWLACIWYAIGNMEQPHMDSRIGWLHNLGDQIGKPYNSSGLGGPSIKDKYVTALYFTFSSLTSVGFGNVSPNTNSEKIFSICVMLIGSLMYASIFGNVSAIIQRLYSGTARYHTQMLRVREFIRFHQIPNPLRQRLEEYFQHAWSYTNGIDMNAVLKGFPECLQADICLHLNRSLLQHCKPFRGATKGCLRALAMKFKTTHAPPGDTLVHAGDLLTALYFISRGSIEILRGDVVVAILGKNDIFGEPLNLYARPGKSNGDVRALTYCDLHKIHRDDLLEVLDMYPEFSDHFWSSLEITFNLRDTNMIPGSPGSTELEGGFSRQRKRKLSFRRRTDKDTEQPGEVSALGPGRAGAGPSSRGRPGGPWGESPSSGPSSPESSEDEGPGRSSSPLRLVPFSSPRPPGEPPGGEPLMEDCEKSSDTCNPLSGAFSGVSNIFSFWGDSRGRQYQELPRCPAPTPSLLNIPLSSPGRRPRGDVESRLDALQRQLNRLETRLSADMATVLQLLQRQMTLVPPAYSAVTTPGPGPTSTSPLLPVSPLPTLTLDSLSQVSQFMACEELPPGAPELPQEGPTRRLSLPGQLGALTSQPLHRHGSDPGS
Chain of Ribosomal protein S6 kinase beta-1 (P23443 whole entry): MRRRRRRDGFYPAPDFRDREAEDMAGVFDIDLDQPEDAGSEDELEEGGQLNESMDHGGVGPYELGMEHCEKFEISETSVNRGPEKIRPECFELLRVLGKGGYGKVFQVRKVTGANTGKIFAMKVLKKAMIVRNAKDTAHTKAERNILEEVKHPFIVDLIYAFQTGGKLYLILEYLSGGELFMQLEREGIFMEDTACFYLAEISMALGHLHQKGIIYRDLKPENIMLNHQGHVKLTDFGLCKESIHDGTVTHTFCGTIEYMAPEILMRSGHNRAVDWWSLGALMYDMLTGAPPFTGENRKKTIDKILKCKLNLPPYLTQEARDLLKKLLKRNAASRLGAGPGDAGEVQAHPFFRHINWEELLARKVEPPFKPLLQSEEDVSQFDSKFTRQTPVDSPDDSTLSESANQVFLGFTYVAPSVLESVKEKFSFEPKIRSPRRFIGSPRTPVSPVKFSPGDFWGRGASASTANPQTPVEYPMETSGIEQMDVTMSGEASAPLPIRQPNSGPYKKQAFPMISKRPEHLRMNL
Chain of RAC-gamma serine/threonine-protein kinase (Q9Y243 whole entry): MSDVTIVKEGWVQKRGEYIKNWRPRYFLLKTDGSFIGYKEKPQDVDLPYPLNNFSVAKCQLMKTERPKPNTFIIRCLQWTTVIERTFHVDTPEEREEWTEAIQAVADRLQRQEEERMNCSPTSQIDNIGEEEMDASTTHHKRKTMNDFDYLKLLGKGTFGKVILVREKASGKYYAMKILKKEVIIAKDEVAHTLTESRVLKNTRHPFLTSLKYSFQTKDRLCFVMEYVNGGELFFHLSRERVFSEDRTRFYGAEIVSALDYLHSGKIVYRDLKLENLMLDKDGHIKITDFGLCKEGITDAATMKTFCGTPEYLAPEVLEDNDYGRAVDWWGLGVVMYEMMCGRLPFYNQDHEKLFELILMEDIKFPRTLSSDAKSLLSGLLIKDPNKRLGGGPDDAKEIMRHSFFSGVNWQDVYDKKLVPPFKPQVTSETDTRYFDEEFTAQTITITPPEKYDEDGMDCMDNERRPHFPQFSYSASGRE
Chain of RAC-beta serine/threonine-protein kinase (P31751 whole entry): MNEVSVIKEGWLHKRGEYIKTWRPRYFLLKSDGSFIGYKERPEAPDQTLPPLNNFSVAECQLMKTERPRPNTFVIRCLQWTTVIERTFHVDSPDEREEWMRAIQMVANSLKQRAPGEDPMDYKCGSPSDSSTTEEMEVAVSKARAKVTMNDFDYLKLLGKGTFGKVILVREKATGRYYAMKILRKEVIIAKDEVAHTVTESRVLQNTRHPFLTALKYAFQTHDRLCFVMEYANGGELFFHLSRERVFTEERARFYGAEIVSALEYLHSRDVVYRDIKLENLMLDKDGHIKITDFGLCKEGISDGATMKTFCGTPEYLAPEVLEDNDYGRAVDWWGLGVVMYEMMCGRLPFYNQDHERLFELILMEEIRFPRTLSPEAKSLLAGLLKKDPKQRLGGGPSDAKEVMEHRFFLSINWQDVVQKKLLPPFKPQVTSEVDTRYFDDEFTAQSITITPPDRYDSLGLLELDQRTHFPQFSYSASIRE
Chain of RAC-alpha serine/threonine-protein kinase (P31749 whole entry): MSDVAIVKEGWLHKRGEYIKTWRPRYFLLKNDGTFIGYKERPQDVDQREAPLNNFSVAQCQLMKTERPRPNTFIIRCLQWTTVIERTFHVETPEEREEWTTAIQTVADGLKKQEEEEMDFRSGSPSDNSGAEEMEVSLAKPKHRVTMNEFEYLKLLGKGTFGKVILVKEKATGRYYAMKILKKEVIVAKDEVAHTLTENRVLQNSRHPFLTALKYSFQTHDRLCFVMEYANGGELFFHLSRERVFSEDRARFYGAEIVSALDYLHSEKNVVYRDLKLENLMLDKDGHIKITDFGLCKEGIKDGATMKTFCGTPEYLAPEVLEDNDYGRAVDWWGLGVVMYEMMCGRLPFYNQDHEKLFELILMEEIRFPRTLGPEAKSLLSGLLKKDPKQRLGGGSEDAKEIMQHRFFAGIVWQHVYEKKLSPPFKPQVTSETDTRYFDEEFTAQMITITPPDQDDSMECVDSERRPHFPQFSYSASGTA

| Structure (SMILES) | IC50 (OVCAR-8) | inhibition at 3 µM (hERG (KCNH2)) | remaining at 1.5 h, 100 ug/ml [1] | remaining at 1.5 h, 100 ug/ml [2] | remaining at 1.5 h, 100 ug/ml [3] | remaining at 1.5 h, 100 ug/ml [4] | IC50 (LNCaP) | IC50 [19] | IC50 [20] | IC50 (Protein kinase C (PKC)) | IC50 [21] | IC50 [22] | IC50 [23] | IC50 [24] | IC50 [25] | IC50 (HCT-116) | IC50 [26] | also measured |
| --- | --- | --- | --- | --- | --- | --- | --- | --- | --- | --- | --- | --- | --- | --- | --- | --- | --- | --- |
| Cn1ncc(Cl)c1-c1cc(C(=O)N[C@@H]2CNCC[C@H]2c2ccc(F)c(F)c2)oc1Cl.O=C(O)C(O)C(O)C(=O)O | 40 nM | 62.1% | 89.9% | 69.7% | 86.9% | 39.9% | 60 nM | < 0.64 nM | 0.1 nM | 156 nM | 20 nM | 48 nM | 7 nM | 59 nM | 3 nM | 210 nM |  | Cmax [5]: 398 ng/mL; half-life [6]: 10.7 h; AUC [7]: 6670 ng·h/mL; bioavailability [8]: 97.9%; IC50 [9]: 21.1 nM; Activity [10]: Toxic; Activity [11]: Toxic; Activity [12]: Toxic; Activity [13]: Toxic; inhibition in vivo at 10 mg/kg (MM1.S): 87.5%; Activity [14]: <= 25%; MTD at 528 h [15]: < 10 mg/kg; Activity [16]: Toxic; Activity [17]: Toxic; Activity [18]: Toxic |
| Cn1ncc(Cl)c1-c1cc(C(=O)N[C@@H]2CN[C@H](CCO)C[C@H]2c2ccc(F)c(F)c2)oc1Cl | 460 nM | 9% | > 99% | 69% | 96% | 18% | 60 nM | 0.54 nM | 0.12 nM | 16 nM | 38 nM | 32 nM | 7.1 nM | 102 nM | 0.98 nM | 360 nM | 0.2 nM | remaining at 1 h, 100 ug/ml [27]: > 99%; remaining at 1 h, 100 ug/ml [28]: > 99%; Tmax [29]: 1.1 h; half-life [30]: 12.7 h; Cmax [31]: 145 ng/mL; CL/F [32]: 433 mL/min/kg; AUC(0-t) at 24 h [33]: 1010 ng·h/mL; AUC(0-inf) [34]: 1660 ng·h/mL; MRT last at 24 h [35]: 5.1 h; MRT inf [36]: 12.3 h; Vd [37]: 300.9 L/kg |
| Cn1ncc(Cl)c1-c1cc(C(=O)N[C@H](CN)Cc2ccc(F)c(F)c2)oc1Cl [UPROSERTIB] | 240 to 1320 nM | 50 to 50.2% |  |  |  |  | 70 nM |  |  |  |  | 339 nM | 60 nM | 211 nM |  | 720 to 1270 nM | 0.6 nM | inhibition in vivo at 60 mg/kg (SK-OV-3): 63.3%; Activity [38]: Non-Toxic; Activity [39]: Non-Toxic |
